The values that follow come from ChEMBL document CHEMBL5291721, “A preclinical secondary pharmacology resource illuminates target-adverse drug reaction associations of marketed drugs” (Nat Commun, 2023).

Some results are limits rather than exact numbers.

One test concerns the target T1, Progesterone receptor (Homo sapiens, UniProt P06401).
T1 sequence (P06401 whole entry): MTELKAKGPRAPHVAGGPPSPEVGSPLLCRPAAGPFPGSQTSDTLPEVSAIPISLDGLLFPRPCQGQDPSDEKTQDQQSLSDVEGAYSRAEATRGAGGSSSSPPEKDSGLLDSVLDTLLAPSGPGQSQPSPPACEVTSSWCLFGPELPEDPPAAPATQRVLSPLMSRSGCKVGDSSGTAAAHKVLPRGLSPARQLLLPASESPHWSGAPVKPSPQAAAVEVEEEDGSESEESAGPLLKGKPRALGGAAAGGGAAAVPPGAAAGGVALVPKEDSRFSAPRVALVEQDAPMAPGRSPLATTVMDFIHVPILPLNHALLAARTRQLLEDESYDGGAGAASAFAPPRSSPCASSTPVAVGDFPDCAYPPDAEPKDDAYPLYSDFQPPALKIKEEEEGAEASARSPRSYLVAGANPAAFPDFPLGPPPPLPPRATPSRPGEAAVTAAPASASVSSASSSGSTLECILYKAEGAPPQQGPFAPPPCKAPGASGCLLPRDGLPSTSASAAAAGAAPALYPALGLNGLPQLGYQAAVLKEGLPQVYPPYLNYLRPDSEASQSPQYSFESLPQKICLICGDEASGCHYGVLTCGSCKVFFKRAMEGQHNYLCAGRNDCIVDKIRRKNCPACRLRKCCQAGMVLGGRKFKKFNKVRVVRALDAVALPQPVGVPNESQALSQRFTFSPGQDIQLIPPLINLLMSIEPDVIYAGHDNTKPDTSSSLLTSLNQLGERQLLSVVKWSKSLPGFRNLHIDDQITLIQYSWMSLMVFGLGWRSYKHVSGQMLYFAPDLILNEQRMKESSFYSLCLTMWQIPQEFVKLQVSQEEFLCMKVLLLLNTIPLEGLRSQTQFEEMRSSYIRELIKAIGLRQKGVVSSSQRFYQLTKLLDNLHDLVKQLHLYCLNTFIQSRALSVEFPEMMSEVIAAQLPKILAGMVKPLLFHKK

In test [1] the target is 5-hydroxytryptamine receptor 2B (Homo sapiens, UniProt P41595). It is filed as functional, cell-based.
Test [2] concerns the target Sodium-dependent serotonin transporter (Homo sapiens, UniProt P31645).
Test [3] deals with Gamma-aminobutyric acid receptor subunit alpha-1/alpha-2/beta-2/gamma-2 (Homo sapiens, UniProt P14867+P18507+P47869+P47870). The test is classed as protein-complex assay.
For test [4], the target named is T2, Muscarinic acetylcholine receptor M1 (Homo sapiens, UniProt P11229).
T2 sequence (P11229 whole entry): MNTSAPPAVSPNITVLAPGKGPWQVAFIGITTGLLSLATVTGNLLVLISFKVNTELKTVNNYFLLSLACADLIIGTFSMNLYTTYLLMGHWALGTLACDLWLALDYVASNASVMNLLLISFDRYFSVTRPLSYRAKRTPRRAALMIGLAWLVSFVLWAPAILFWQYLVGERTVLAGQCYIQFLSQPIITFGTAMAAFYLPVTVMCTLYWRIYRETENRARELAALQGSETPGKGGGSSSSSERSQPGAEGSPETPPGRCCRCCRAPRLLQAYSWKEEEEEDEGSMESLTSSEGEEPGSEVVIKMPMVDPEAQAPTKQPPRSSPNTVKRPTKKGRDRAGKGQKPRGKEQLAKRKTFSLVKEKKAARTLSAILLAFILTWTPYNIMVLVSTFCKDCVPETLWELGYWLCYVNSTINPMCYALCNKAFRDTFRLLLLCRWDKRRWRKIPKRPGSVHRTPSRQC
The test is classed as functional.

The target in test [5] is Beta-1 adrenergic receptor (Homo sapiens, UniProt P08588). The test is classed as functional.
A further test addresses T3, Endothelin-1 receptor (Homo sapiens, UniProt P25101).
T3 sequence (P25101 whole entry): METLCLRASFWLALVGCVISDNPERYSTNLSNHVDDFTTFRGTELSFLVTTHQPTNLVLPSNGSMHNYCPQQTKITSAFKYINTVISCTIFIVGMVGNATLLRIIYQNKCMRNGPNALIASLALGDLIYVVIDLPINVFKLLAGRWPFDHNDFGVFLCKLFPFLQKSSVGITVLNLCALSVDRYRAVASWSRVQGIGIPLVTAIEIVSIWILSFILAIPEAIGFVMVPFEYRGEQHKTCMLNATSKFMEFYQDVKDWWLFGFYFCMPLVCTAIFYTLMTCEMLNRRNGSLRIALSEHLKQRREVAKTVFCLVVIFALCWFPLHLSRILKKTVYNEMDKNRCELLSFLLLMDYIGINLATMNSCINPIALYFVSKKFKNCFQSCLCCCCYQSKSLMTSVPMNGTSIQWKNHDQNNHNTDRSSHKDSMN

Test [6] addresses T4, Gastrin/cholecystokinin type B receptor (Homo sapiens, UniProt P32239).
T4 sequence (P32239 whole entry): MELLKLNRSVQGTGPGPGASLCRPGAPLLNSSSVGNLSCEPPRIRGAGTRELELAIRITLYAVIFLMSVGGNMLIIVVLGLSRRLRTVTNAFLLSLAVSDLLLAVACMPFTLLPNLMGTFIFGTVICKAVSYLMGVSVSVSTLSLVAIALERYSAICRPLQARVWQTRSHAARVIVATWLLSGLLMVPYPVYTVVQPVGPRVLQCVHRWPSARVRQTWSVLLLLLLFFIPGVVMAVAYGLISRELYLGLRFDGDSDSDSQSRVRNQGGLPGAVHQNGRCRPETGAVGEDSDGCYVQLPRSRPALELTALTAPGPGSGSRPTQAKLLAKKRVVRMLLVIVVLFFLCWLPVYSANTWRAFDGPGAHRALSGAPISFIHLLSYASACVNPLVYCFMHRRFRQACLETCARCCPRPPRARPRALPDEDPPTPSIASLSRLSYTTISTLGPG

Another test concerns the target Vasopressin V1a receptor (Homo sapiens, UniProt P37288).
Further: assay procedure not described here.

Chain of 5-hydroxytryptamine receptor 2B (P41595 whole entry): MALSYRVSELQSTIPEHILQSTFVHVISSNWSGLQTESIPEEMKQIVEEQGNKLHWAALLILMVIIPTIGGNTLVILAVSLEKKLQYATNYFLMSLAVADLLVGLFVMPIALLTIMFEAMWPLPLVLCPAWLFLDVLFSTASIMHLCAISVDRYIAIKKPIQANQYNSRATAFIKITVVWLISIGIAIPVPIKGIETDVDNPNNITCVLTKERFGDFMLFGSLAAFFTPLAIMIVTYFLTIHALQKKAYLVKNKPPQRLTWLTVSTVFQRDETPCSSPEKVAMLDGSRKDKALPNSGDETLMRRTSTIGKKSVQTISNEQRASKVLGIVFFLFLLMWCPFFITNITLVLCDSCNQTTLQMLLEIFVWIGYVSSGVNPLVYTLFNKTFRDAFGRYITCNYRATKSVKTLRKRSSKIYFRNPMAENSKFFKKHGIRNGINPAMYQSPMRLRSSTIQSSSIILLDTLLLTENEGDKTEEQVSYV
Chain of Vasopressin V1a receptor (P37288 whole entry): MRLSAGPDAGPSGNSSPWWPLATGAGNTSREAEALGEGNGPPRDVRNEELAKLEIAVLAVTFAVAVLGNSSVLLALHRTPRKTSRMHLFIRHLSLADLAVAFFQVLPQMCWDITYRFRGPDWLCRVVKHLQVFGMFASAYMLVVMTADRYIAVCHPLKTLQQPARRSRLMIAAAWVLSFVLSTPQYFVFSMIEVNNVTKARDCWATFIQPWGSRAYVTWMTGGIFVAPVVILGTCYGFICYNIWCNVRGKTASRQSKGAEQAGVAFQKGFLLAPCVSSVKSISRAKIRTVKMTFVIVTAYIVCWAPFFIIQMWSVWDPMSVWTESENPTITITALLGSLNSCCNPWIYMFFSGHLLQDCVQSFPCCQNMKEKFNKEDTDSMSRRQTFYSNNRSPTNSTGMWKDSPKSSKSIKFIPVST
Chain of Sodium-dependent serotonin transporter (P31645 whole entry): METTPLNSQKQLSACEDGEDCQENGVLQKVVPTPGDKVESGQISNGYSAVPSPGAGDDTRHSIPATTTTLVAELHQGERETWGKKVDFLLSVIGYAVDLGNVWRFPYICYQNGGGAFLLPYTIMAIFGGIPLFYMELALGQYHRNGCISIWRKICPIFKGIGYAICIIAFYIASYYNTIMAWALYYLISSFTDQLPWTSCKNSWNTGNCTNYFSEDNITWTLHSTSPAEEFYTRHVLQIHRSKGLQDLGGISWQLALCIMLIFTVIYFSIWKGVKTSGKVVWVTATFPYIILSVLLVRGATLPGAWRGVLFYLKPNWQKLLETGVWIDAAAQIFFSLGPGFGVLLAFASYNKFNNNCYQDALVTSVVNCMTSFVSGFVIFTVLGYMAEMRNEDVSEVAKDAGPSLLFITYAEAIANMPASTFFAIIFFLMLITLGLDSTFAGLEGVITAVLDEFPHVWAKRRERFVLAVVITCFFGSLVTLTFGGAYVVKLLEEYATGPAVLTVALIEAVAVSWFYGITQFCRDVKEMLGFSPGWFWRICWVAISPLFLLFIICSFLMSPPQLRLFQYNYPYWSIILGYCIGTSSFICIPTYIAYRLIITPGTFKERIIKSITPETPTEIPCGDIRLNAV
Chain of Gamma-aminobutyric acid receptor subunit alpha-1/alpha-2/beta-2/gamma-2 (P14867 whole entry): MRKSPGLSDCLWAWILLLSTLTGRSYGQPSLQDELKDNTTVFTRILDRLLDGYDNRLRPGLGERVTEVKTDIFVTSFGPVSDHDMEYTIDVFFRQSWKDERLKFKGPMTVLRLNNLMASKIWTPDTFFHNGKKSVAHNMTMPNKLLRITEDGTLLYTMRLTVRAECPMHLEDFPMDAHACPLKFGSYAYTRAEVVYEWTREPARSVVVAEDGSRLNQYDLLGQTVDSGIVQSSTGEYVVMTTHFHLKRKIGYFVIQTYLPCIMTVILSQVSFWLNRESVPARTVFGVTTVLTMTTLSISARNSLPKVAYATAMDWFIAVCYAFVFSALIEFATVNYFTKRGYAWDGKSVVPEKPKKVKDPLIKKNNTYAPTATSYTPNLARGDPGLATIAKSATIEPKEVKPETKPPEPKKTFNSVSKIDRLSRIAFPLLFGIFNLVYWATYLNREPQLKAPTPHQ
Chain of Gamma-aminobutyric acid receptor subunit alpha-1/alpha-2/beta-2/gamma-2 (P47870 whole entry): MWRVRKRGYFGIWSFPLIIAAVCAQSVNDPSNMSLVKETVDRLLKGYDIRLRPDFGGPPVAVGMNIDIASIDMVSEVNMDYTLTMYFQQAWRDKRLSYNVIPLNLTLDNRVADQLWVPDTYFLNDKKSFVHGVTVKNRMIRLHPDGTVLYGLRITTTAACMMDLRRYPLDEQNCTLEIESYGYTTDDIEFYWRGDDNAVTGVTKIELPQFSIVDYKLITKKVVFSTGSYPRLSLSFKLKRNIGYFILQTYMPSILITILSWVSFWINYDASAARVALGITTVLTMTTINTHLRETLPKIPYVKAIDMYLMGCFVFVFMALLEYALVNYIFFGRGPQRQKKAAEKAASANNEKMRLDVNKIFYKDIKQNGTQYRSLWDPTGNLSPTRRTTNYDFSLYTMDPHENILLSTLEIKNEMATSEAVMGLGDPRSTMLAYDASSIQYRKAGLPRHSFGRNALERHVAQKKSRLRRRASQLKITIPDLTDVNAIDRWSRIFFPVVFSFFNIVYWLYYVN
Chain of Gamma-aminobutyric acid receptor subunit alpha-1/alpha-2/beta-2/gamma-2 (P18507 whole entry): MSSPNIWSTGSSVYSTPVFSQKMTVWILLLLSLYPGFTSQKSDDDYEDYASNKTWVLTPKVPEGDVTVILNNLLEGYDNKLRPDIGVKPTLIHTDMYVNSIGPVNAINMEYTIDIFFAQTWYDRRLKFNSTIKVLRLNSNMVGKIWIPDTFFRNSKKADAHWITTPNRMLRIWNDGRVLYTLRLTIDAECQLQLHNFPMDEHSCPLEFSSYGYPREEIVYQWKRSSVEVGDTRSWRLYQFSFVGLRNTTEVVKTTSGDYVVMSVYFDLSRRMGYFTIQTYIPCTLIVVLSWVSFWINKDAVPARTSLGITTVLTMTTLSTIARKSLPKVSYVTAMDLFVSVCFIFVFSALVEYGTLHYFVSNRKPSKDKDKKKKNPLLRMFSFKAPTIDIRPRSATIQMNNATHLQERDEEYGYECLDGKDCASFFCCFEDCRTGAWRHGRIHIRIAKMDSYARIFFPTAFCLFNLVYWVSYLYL
Chain of Gamma-aminobutyric acid receptor subunit alpha-1/alpha-2/beta-2/gamma-2 (P47869 whole entry): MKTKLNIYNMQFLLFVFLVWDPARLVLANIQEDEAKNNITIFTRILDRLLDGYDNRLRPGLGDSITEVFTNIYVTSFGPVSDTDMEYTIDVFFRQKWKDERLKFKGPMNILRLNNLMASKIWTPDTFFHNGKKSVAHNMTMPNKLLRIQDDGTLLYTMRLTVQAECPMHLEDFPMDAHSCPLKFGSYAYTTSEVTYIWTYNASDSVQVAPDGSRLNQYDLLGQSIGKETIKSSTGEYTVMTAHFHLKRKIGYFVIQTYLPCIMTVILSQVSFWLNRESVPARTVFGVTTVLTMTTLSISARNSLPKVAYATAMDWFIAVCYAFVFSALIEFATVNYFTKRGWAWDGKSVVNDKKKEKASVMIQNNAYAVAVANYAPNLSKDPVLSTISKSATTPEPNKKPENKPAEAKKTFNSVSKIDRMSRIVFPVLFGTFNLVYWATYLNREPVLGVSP
Chain of Beta-1 adrenergic receptor (P08588 whole entry): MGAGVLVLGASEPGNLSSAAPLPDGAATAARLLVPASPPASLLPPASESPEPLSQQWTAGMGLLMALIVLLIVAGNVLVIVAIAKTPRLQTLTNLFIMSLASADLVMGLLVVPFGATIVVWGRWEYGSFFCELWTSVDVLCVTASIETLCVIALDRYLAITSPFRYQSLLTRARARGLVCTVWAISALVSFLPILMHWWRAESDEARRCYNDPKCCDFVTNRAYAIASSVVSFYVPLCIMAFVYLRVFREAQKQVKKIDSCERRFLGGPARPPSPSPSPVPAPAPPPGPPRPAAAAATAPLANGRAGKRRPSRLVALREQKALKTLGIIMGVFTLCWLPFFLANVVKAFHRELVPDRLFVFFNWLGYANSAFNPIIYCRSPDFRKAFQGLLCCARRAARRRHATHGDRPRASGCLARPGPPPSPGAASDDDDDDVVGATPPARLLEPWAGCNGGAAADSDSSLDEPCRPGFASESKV

The AC50 is the concentration at which the activity in the assay is half-maximal. Read a low AC50 as activity at low concentration. Take `CC(=O)OC[C@H]1O[C@@H](n2ccc(=O)[nH]c2=O)[C@H](OC(C)=O)[C@@H]1OC(C)=O` [URIDINE TRIACETATE]: the AC50 (on Progesterone receptor; in test [1]; in test [2]) was over 30 µM throughout.

Take `O=C1c2c(O)c(=O)ccn2N([C@@H]2c3ccccc3SCc3c2ccc(F)c3F)[C@@H]2COCCN12` [BALOXAVIR]: the AC50 (at Progesterone receptor; in test [1]; in [2]) was over 30 µM in each case.

On to `Cc1c(-c2ccccc2)oc2c(C(=O)OCCN3CCCCC3)cccc2c1=O` [FLAVOXATE], for which the AC50 (on Progesterone receptor; in test [3]; in test [1]) was over 30 µM each time.

On to `COc1cc(Nc2c(C#N)cnc3cc(OCCCN4CCN(C)CC4)c(OC)cc23)c(Cl)cc1Cl` [BOSUTINIB], for which the AC50 in test [4] was over 10 µM; at Progesterone receptor it was 7.75 µM; in [1], over 30 µM; in [5], over 10 µM; at Endothelin-1 receptor it was over 30 µM; in [6], over 30 µM. In addition, the AC50 at Vasopressin V1a receptor stood at 4.7 µM; in test [2] it was 3.21 µM.

In the case of `C#C[C@]1(O)CC[C@H]2[C@@H]3CCc4cc(O)ccc4[C@H]3CC[C@@]21C` [ETHINYL ESTRADIOL], the AC50 on Progesterone receptor is 0.02 µM; in test [1], over 30 µM; in test [5], over 10 µM; at Endothelin-1 receptor it was over 30 µM; in test [6], over 30 µM; at Vasopressin V1a receptor, over 10 µM.

In the case of `CCc1ccc(CCOc2ccc(CC3SC(=O)NC3=O)cc2)nc1` (stereo not drawn) [PIOGLITAZONE], the AC50 at Progesterone receptor is over 30 µM; in test [1], over 30 µM; in test [5] it was over 10 µM; at Endothelin-1 receptor it was 15.9 µM; in [6], over 30 µM; at Vasopressin V1a receptor, over 30 µM.

In the case of `O=C1CC[C@@]2(O)[C@H]3Cc4ccc(O)c5c4[C@@]2(CCN3CC2CC2)[C@H]1O5` [NALTREXONE], the AC50 (at Progesterone receptor; in [3]; in test [1]) was over 30 µM in each case.

In the case of `Cc1cc2c(cc1CC(=O)c1sccc1S(=O)(=O)Nc1onc(C)c1Cl)OCO2` [SITAXENTAN], the AC50 (at Progesterone receptor; in test [1]; in test [2]) was over 30 µM each time.

Take `CCC(=O)O[C@H]1[C@H](O[C@@H]2[C@@H](C)[C@H](O[C@H]3C[C@@](C)(OC)[C@@H](O)[C@H](C)O3)[C@@H](C)C(=O)O[C@H](CC)[C@@](C)(O)[C@H](O)[C@@H](C)C(=O)[C@H](C)C[C@@]2(C)O)O[C@H](C)C[C@@H]1N(C)C` [ERYTHROMYCIN PROPIONATE]: the AC50 on Progesterone receptor is 10.4 µM; in test [1], over 30 µM.

Turning to `CN(C)CCCN1c2ccccc2CCc2ccc(Cl)cc21` [CLOMIPRAMINE], the AC50 in [3] and in test [1] was over 30 µM in each case.

Consider `CC(O)CO` (stereo not drawn) [PROPYLENE GLYCOL], for which the AC50 (at Progesterone receptor; in test [3]; in test [1]) was over 30 µM throughout.

Take `OCCN1CCN(CCCN2c3ccccc3C=Cc3ccccc32)CC1` [OPIPRAMOL]: the AC50 (in test [4]; at Progesterone receptor; in [1]; in test [5]; at Endothelin-1 receptor; in test [6]) was over 30 µM in each case. Further, the AC50 was over 30 µM on Vasopressin V1a receptor and 11.7 µM in test [2].

Regarding `O=C1c2ccccc2C(=O)C1C(=O)C(c1ccccc1)c1ccccc1` [DIPHENADIONE], the AC50 (at Progesterone receptor; in test [1]; in test [2]) was over 30 µM throughout.

In the case of `OC[C@@H](O)[C@@H](O)[C@H](O)[C@H](O)CO` [MANNITOL], the AC50 (on Progesterone receptor; in [3]; in test [1]) was over 30 µM in each case.

As for `Sc1ncnc2nc[nH]c12` [MERCAPTOPURINE ANHYDROUS], the AC50 (on Progesterone receptor; in test [3]; in [1]) was over 30 µM in each case.

Consider `Cc1cc(O)cc(C)c1Cl` [CHLOROXYLENOL], for which the AC50 (at Progesterone receptor; in test [3]; in test [1]) was over 30 µM throughout.

As to `Cc1ccc(O)c2ncccc12` [TILIQUINOL], the AC50 (at Progesterone receptor; in test [1]; in [2]) was over 30 µM throughout.

For `O=C(NC[C@H]1CN(c2ccc(N3CCOCC3=O)cc2)C(=O)O1)c1ccc(Cl)s1` [RIVAROXABAN], the AC50 (in test [4]; on Progesterone receptor; in [1]; in test [2]) was over 30 µM throughout.

Consider `C[C@H]1O[C@H](O[C@H]2[C@H](O)[C@@H](O)[C@@H](O[C@H]3[C@H](O)[C@@H](O)C(O)O[C@@H]3CO)O[C@@H]2CO)[C@H](O)[C@@H](O)[C@@H]1N[C@H]1C=C(CO)[C@@H](O)[C@H](O)[C@H]1O` (stereo partly drawn) [ACARBOSE], for which the AC50 (at Progesterone receptor; in test [1]; in test [5]; at Endothelin-1 receptor; in test [6]; at Vasopressin V1a receptor) was over 30 µM throughout.

With `CS(=O)(=O)c1ccc([C@@H](O)[C@@H](CO)NC(=O)C(Cl)Cl)cc1` [THIAMPHENICOL], the AC50 (at Progesterone receptor; in test [1]; in test [5]; at Endothelin-1 receptor; in test [6]; on Vasopressin V1a receptor) was over 30 µM in each case.

As to `NC(=O)c1ncn([C@@H]2O[C@H](CO)[C@@H](O)[C@H]2O)c1O` [MIZORIBINE], the AC50 (in test [4]; in [5]; at Endothelin-1 receptor; in test [6]; on Vasopressin V1a receptor) was over 30 µM each time.

On to `C#C[C@]1(O)CC[C@H]2[C@@H]3CCC4=CC(=O)CC[C@@H]4[C@H]3CC[C@@]21CC` [LEVONORGESTREL], for which the AC50 in test [3] and in test [1] was over 30 µM throughout.

For `CN1CCCC(CN2c3ccccc3Sc3ccccc32)C1` (stereo not drawn) [MEPAZINE], the AC50 (on Progesterone receptor; in [1]) was over 30 µM throughout.

Consider `C(=N\NC1=NCCN1)/c1c2ccccc2c(/C=N/NC2=NCCN2)c2ccccc12` [BISANTRENE], for which the AC50 at Progesterone receptor is over 30 µM; in test [1] it was over 30 µM; in test [2], 2.25 µM.
